Source: patent US5189169A (priority 1991, dated 1993)
Several values for one entry are separate records, joined by “and”; a condition that tells them apart may be missing. Equal values may be shown once.

Key:
[1] = tested on: yellow nutsedge; parameters: species or system Cyperus esculentus; conditions: in vivo
[2] = tested on: three broadleaf weeds (morning glory, mustard, velvetleaf); parameters: species or system Ipomoea purpurea, Brassica kaber, Abutilon theophrasti; conditions: in vivo
[3] = tested on: yellow nutsedge; parameters: species or system Cyperus esculentus; conditions: in vivo; remark: listed apart in the source
[4] = tested on: three grassy weeds (wild oat, watergrass, foxtail); parameters: species or system Avena fatua, Echinochloa crusgalli, Setaria viridis; conditions: in vivo
[5] = tested on: three broadleaf weeds (morning glory, mustard, velvetleaf); parameters: species or system Ipomoea purpurea, Brassica kaber, Abutilon theophrasti; conditions: in vivo; remark: listed apart in the source
[6] = tested on: three grassy weeds (wild oat, watergrass, foxtail); parameters: species or system Avena fatua, Echinochloa crusgalli, Setaria viridis; conditions: in vivo; remark: listed apart in the source
[7] = tested on: three broadleaf weeds: wild mustard, redroot pigweed and curly dock; assay: Post-emergence herbicidal activity, broadleaf weeds (Table III); format: in vivo, Brassica kaber, Amaranthus retroflexus, Rumex crispus; conditions: 2.24 kg/ha, 2-3 weeks after treatment
Method: (§1) The herbicidal effect was observed by comparing the extent of weed control in test flats treated with the compounds against that occurring in similar non-treated control flats. All were applied at 3.57 lb/A (4 kg/ha) to pre-emergence and post-emergence screening flats. An 80 gal/A (748.3 1/ha) spray volume was utilized. Post-emergence flats were seeded 12 days prior to treatment. Pre-emergence flats were seeded one day prior to treatment. Overhead watering of pre-emergence flats and soil surface watering of post-emergence flats, so as to avoid wetting the foliage, were carried out for the duration of the test.
(§2) Weed seeds were planted in a flat at a seed depth of 0.5 inch (1.3 cm). Soil for flats was prepared using loam soil fortified with 17-17-17 fertilizer (N-P2 O5 -K2 O on a weight basis) and Captan 80W fungicide. The test weeds were as follows:
(§3) The spray solutions were prepared by dissolving 240 mg of test compound in 20 ml of acetone containing 1% polyoxyethylene sorbitan monolaurate emulsifier, then adding 20 ml of water to the resulting solution. The spray solutions were applied using a linear spray table. Pre-emergence flats are raised to the level of the post-emergence foliage canopy by setting the flats on a wooden block.
(§4) The degree of weed control was visually assessed and recorded as percentage control compared to the growth of the same species in an untreated check flat of the same age. The rating scale ranges from 0 to 100%, where 0 equals no effect with plant growth equal to the untreated control, and 100 equals complete kill.
(§5) Compounds 68 to 145 in Table I were tested generally similarly to Compounds No. 1 to 67 with the following differences: The rate of application was 2 lb/acre (2.24 kg/ha), no 6-day evaluations were made, and the weeds were:
(§6) Three broadleaf weeds: wild mustard, redroot pigweed (Amaranthus retroflexus) and curly dock (Rumex crispus).
(§7) Ratings were taken 2-3 weeks after treatment.

[8] = tested on: four grassy weeds: wild oat, watergrass, green foxtail and crabgrass; assay: Post-emergence herbicidal activity, grassy weeds (Table III); format: in vivo; conditions: 2.24 kg/ha, 2-3 weeks after treatment
Method: as §1, §2, §3, §4, §5
(§8) Four grassy weeds: wild oat, watergrass, green foxtail and crabgrass (Digitaria sanguinalis);
as §7

[9] = tested on: three broadleaf weeds: wild mustard, redroot pigweed and curly dock; assay: Pre-emergence herbicidal activity, broadleaf weeds (Table III); format: in vivo, Brassica kaber, Amaranthus retroflexus, Rumex crispus; conditions: 2.24 kg/ha, 2-3 weeks after treatment
Method: as §1, §2, §3, §4, §5, §6, §7

[10] = tested on: four grassy weeds: wild oat, watergrass, green foxtail and crabgrass; assay: Pre-emergence herbicidal activity, grassy weeds (Table III); format: in vivo; conditions: 2.24 kg/ha, 2-3 weeks after treatment
Method: as §1, §2, §3, §4, §5, §8, §7

Compound	% Control, Pre-emergence, NS [1]	% Control, Pre-emergence, BL avg. [2]	% Control, Post-emergence, NS [3]	% Control, Post-emergence, GR avg. [4]	% Control, Post-emergence, BL avg. [5]	% Control, Pre-emergence, GR avg. [6]	% Control, Post-Emergence, BL Avg. [7]	% Control, Post-Emergence, GR Avg. [8]	% Control, Pre-Emergence, BL Avg. [9]	% Control, Pre-Emergence, GR Avg. [10]
CCCSP(=O)(N(CCC)CCC)N(CCC)c1ccc(Cl)cc1C (centres unmarked) [Compound 61]	0%	3%	0%	50% and 38%	80% and 76%	0%	–	–	–	–
CCCSP(=O)(N(C)CC)N(CCC)CCC (centres unmarked) [Compound 2]	0%	33%	20% and 10%	80% and 57%	100%	33%	–	–	–	–
CCCSP(=O)(N(CCC)CCC)N(C)c1cc(OC)cc(OC)c1 (centres unmarked) [Compound 43]	0%	0%	0%	10%	–	0%	–	–	–	–
CCCN(CCC)P(=O)(Sc1ccc(Cl)c(Cl)c1)N(CCC)CCC [Compound 9]	0%	0%	0%	50% and 47%	50% and 83%	0%	–	–	–	–
CCCSP(=O)(N(CCC)CCC)N(C)c1ccc(F)cc1 (centres unmarked) [Compound 32]	0%	0%	0%	10% and 3%	–	0%	–	–	–	–
CCCCN(CCCC)P(=O)(SCCC)N(CCCC)CCCC [Compound 7, S-n-propyl-tetra(n-butyl) phosphorodiamide]	0%	0%	10% and 0%	90% and 93%	90% and 100%	0%	–	–	–	–
CCCSP(=O)(N(CC)CCC(C)C)N(CC)CCC(C)C [Compound 51]	0%	8%	0%	70% and 45%	95% and 100%	0%	–	–	–	–
CCCCCSP(=O)(N(CCCC)CCCC)N(CCCC)CCCC [Compound 4]	0%	0%	0%	70% and 77%	50% and 45%	0%	–	–	–	–
CCCCSP(=O)(N(CCC)CCC)N(CCC)CCC [Compound 1]	0%	50%	10% and 5%	90% and 85%	90% and 100%	2%	–	–	–	–
CCCSP(=O)(N(C)c1ccc(F)cc1)N(C)c1ccc(F)cc1 [Compound 45]	0%	0%	0% and 10%	50% and 75%	90% and 92%	0%	–	–	–	–
CCCSP(=O)(N(CCC)CCC)N(C)c1ccc(OC)cc1 (centres unmarked) [Compound 10]	9%	0%	10% and 0%	30% and 23%	80%	0%	–	–	–	–
CCCSP(=O)(N(CCC)CCC)N(C)c1ccccc1 (centres unmarked) [Compound 27]	0%	0%	0% and 5%	20% and 40%	–	0%	–	–	–	–
CCCSP(=O)(N(CCC)CCC)N(C)c1ccccc1F (centres unmarked) [Compound 33]	0%	0%	0%	5% and 0%	–	0%	–	–	–	–
CCCSP(=O)(N(CCC)CCC)N(C)c1ccc(F)c(Cl)c1 (centres unmarked) [Compound 31]	0%	0%	0%	10% and 5%	–	0%	–	–	–	–
CCCCN(CCCC)P(=O)(SCCC)N(C(C)C)C(C)C (centres unmarked) [Compound 28]	0%	0%	0%	10% and 7%	–	0%	–	–	–	–
CCCCSP(=O)(N(CC)CC)N(CC)CC [Compound 69]	–	–	–	–	–	–	87%	30%	0%	13%

Compound	% Control, Pre-emergence, NS [1]	% Control, Pre-emergence, BL avg. [2]	% Control, Post-emergence, NS [3]	% Control, Post-emergence, GR avg. [4]	% Control, Post-emergence, BL avg. [5]	% Control, Pre-emergence, GR avg. [6]	% Control, Post-Emergence, BL Avg. [7]	% Control, Post-Emergence, GR Avg. [8]	% Control, Pre-Emergence, BL Avg. [9]	% Control, Pre-Emergence, GR Avg. [10]
CCCN(CCC)P(=O)(SC(C)CC)N1CC(CC)CCC1C (centres unmarked) [Compound 98]	–	–	–	–	–	–	90%	61%	33%	0%
CCCCN(CCCC)P(=O)(SC1CCCCC1)N(C)C (centres unmarked) [Compound 117]	–	–	–	–	–	–	77%	50%	0%	0%
CCCN(CCC)P(=O)(SCc1ccccc1)N(CCC)CCC [Compound 95]	–	–	–	–	–	–	80%	55%	13%	5%
CCCCSP(=O)(N(CC)CC)N(CCCC)CCCC (centres unmarked) [Compound 86]	–	–	–	–	–	–	99%	77%	7%	5%
CCCCN(CCCC)P(=O)(SC(C)C)N(CC)CC (centres unmarked) [Compound 87]	–	–	–	–	–	–	99%	62%	12%	5%
CCCSP(=O)(N(CC)CC)N(C(C)C)C(C)C (centres unmarked) [Compound 29]	0%	0%	0%	10% and 7%	–	0%	–	–	–	–
CCCCCCSP(=O)(N(CCC)CCC)N(CCC)CCC [Compound 116]	–	–	–	–	–	–	96%	53%	10%	0%
C=CCSP(=O)(N(CCC)CCC)N(CCCC)CCCC (centres unmarked) [Compound 129]	–	–	–	–	–	–	86%	69%	0%	0%
CCCN(CCC)P(=O)(SCC)N(C)c1ccccc1 (centres unmarked) [Compound 119]	–	–	–	–	–	–	67%	30%	0%	0%
CCCCN(CC)P(=O)(SCC)N(CCC)CCC (centres unmarked) [Compound 88]	–	–	–	–	–	–	96%	89%	0%	0%
CCCN(CCC)P(=O)(SCC)N(CCC)CCC [Compound 70]	–	–	–	–	–	–	99%	82%	10%	5%
CCCCCCSP(=O)(N(CC)CCCC)N(CCC)CCC (centres unmarked) [Compound 135]	–	–	–	–	–	–	96%	54%	10%	0%
C=CCSP(=O)(N(CC)CCCC)N(CCC)CCC (centres unmarked) [Compound 115]	–	–	–	–	–	–	86%	70%	0%	0%
CCCSP(=O)(N(CCC)CCC)N(CCC)CCC [Compound 71]	–	–	–	–	–	–	99%	64%	57%	27%
CCCCSP(=O)(N(CCC)CCC)N(CCCC)CCCC (centres unmarked) [Compound 126]	–	–	–	–	–	–	86%	61%	0%	0%
